Reference: patent US8859284B2, “Delivery of nanoparticles to neurons” (The United States of America, as represented by the …, priority 2009, dated 2014)
Square brackets hold non-standard residues; d marks the D form. Ends that are not written are not given here. * marks the point of attachment. Palmitoyl = CCCCCCCCCCCCCCCC(=O)*; Dapaa = not defined here; Dapdi = not defined here; Dab = NCC[C@H](N)C(=O)O; Dap = NC[C@H](N)C(=O)O; Kh = not defined here; bi = not defined here; Aib = CC(C)(N)C(=O)O

The substances below were run on COS-1 cells (assay: Cellular uptake and endosomal escape of QD-peptide assemblies, fluorescence microscopy). Conditions: COS1 cells, QD-peptide assemblies.
Assay type: cell-based, African green monkey
Method: Merged images were generated using Adobe PhotoShop.
The peptide assemblies were incubated with COS-1 cells for 1 hr, removed, and the cells were subsequently cultured for 24 hr prior to fixation. An AlexaFluor 647-transferrin (Tf) conjugate was included during the incubation to label the vesicles of the endocytic pathway. Cell nuclei were stained with DAPI.

Substance	% Escape in cells with uptake [%]
WGDapaVKIKK(P)9GGKb [JB728]	93
WGDapaVKIKK(P)12GG(H)6 (WG[Dap](Palmitoyl)VKIKKPPPPPPPPPPPPGGHHHHHH) [JB865]	68
WGDapaVKIKK(P)15GG(H)6 (WG[Dap](Palmitoyl)VKIKKPPPPPPPPPPPPPPPGGHHHHHH) [JB864]	85
WGDapaVRL(P)3VRL(P)3VRL(P)3GG(H)6 (WG[Dap](Palmitoyl)VRLPPPVRLPPPVRLPPPGGHHHHHH) [JB869]	55
WGDapaVRRRIRR(P)9GG(H)6 (WG[Dap](Palmitoyl)VRRRIRRPPPPPPPPPGGHHHHHH) [JB583]	41
WGDapaaVKIKK(P)9GG(H)6 (WG[Dapaa]VKIKKPPPPPPPPPGGHHHHHH; reading uncertain) [JB866]	11
WGDapdiVKIKK(P)9GG(H)6 (WG[Dapdi]VKIKKPPPPPPPPPGGHHHHHH; reading uncertain) [JB641]	88
WGDapeVKIKK(P)9GG(H)6 [JB729]	84
WGDapfVKIKK(P)9GG(H)6 [SI09160]	96
WdGDapdiVKIKK(P)9GG(H)6 [JB621]	90
biKWGSAibAAALGG(R)10 (bi-KWGS[Aib]AAALGGRRRRRRRRRR; reading uncertain) [JB722, Dye labeled cell penetrating peptide, reference compound]	1

Same assay, conditions: COS1 cells, printed in the % QD uptake column

Substance	QD/TAMRA colocalized (integrity) [%]
KhGDapaVKIKK(P)9GG(H)6 ([Kh]G[Dap](Palmitoyl)VKIKKPPPPPPPPPGGHHHHHH; reading uncertain; also: N-terminal modifications) [JB867]	>90

Same assay, conditions: COS1 cells; cell continues in r20 'localized'

Substance	% QD uptake (n), result in words
WGDabaVKIKK(P)9GG(H)6 (WG[Dab](Palmitoyl)VKIKKPPPPPPPPPGGHHHHHH) [JB858]	Membrane

Same assay, conditions: COS1 cells; first word of the cell

Substance	Overall uptake/escape: uptake
WGDapaVKIKK(P)4GG(H)6 (WG[Dap](Palmitoyl)VKIKKPPPPGGHHHHHH) [JB582]	None
WGDapaVKIKK(P)9GGKb [JB728]	High
WGDapaVKIKK(P)12GG(H)6 (WG[Dap](Palmitoyl)VKIKKPPPPPPPPPPPPGGHHHHHH) [JB865]	High
WGDapaVKIKK(P)15GG(H)6 (WG[Dap](Palmitoyl)VKIKKPPPPPPPPPPPPPPPGGHHHHHH) [JB864]	High
WGDapaVRL(P)3VRL(P)3VRL(P)3GG(H)6 (WG[Dap](Palmitoyl)VRLPPPVRLPPPVRLPPPGGHHHHHH) [JB869]	High
WGDapaVRRRIRR(P)9GG(H)6 (WG[Dap](Palmitoyl)VRRRIRRPPPPPPPPPGGHHHHHH) [JB583]	Low
WGDapaaVKIKK(P)9GG(H)6 (WG[Dapaa]VKIKKPPPPPPPPPGGHHHHHH; reading uncertain) [JB866]	Moderate
WGDapdiVKIKK(P)9GG(H)6 (WG[Dapdi]VKIKKPPPPPPPPPGGHHHHHH; reading uncertain) [JB641]	Moderate
WGDapeVKIKK(P)9GG(H)6 [JB729]	High
WGDapfVKIKK(P)9GG(H)6 [SI09160]	Moderate
WdGDapdiVKIKK(P)9GG(H)6 [JB621]	Low
biKWGSAibAAALGG(R)10 (bi-KWGS[Aib]AAALGGRRRRRRRRRR; reading uncertain) [JB722, Dye labeled cell penetrating peptide, reference compound]	Low

Same assay, conditions: COS1 cells; second word of the cell

Substance	Overall uptake/escape: escape
WGDapaVKIKK(P)4GG(H)6 (WG[Dap](Palmitoyl)VKIKKPPPPGGHHHHHH) [JB582]	none
WGDapaVKIKK(P)9GGKb [JB728]	high
WGDapaVKIKK(P)12GG(H)6 (WG[Dap](Palmitoyl)VKIKKPPPPPPPPPPPPGGHHHHHH) [JB865]	moderate
WGDapaVKIKK(P)15GG(H)6 (WG[Dap](Palmitoyl)VKIKKPPPPPPPPPPPPPPPGGHHHHHH) [JB864]	high
WGDapaVRL(P)3VRL(P)3VRL(P)3GG(H)6 (WG[Dap](Palmitoyl)VRLPPPVRLPPPVRLPPPGGHHHHHH) [JB869]	moderate
WGDapaVRRRIRR(P)9GG(H)6 (WG[Dap](Palmitoyl)VRRRIRRPPPPPPPPPGGHHHHHH) [JB583]	moderate
WGDapaaVKIKK(P)9GG(H)6 (WG[Dapaa]VKIKKPPPPPPPPPGGHHHHHH; reading uncertain) [JB866]	low
WGDapdiVKIKK(P)9GG(H)6 (WG[Dapdi]VKIKKPPPPPPPPPGGHHHHHH; reading uncertain) [JB641]	high
WGDapeVKIKK(P)9GG(H)6 [JB729]	high
WGDapfVKIKK(P)9GG(H)6 [SI09160]	high
WdGDapdiVKIKK(P)9GG(H)6 [JB621]	high
biKWGSAibAAALGG(R)10 (bi-KWGS[Aib]AAALGGRRRRRRRRRR; reading uncertain) [JB722, Dye labeled cell penetrating peptide, reference compound]	low

Same assay, conditions: COS-1, 1 hr incubation, 24 hr culture

Substance	intracellular distribution of QD-peptide assemblies
AcG(Pal)DapVKIKK P9GG H6 (Ac-G[Dap](Palmitoyl)VKIKKPPPPPPPPPGGHHHHHH) [Palm-1b]	largely well dispersed throughout the cytoplasm
AcG(Pal)DapVKIKKGLAAAAGG H6 (Ac-G[Dap](Palmitoyl)VKIKKGLAAAAGGHHHHHH) [Palm-2b]	nearly entirely sequestered within endosomes
AcG(Pal)DapVKIKKGLAPAAGG H6 (Ac-G[Dap](Palmitoyl)VKIKKGLAPAAGGHHHHHH) [Palm-3b]	nearly entirely sequestered within endosomes
